# From US5324725A, “7-fused 2-(piperazinoalkyl) indole derivatives, intermediates and compositions thereof” (Kali-Chemie Pharma GmbH, priority 1991, dated 1994)
# Biological target: T1, 5-lipoxygenase (Mus musculus, UniProt P48999)
# T1 construct: A cell suspension containing peritoneal cells of male mice 8-10 weeks old was obtained; endogenous in cells; host or cells: mouse peritoneal macrophages (male mice 8-10 weeks old), zymosan-stimulated
# T1 sequence (P48999 1-674): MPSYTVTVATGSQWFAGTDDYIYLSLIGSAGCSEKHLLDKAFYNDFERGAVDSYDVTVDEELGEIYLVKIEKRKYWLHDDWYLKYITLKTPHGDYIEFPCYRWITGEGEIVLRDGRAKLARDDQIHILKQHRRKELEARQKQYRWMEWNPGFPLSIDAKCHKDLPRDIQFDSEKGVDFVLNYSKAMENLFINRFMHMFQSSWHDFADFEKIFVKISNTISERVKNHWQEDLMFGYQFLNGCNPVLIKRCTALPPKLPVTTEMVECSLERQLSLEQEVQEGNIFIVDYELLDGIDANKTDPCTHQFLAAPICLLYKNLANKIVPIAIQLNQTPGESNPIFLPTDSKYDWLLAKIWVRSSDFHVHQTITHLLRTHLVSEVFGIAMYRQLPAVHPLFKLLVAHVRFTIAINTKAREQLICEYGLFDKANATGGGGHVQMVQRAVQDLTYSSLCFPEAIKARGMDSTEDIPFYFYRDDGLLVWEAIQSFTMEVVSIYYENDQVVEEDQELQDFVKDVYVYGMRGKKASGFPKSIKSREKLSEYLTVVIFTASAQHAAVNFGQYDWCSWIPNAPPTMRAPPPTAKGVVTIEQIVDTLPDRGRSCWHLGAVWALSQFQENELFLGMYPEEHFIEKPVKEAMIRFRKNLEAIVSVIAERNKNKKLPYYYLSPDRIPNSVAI
# Assay: 5-lipoxygenase inhibition: release of LTC4 from zymosan-stimulated mouse peritoneal macrophage cells
# Format: cell-based
# Settings: 10^-5 mol/l, read-out: In vitro % inhibition effect on the release of LTC4
# Description: 5. In vitro determination of cyclooxygenase inhibition and 5-lipoxygenase inhibition.
# After activation of the cell, arachidonic acid contained in cell membranes is metabolized in two ways. Leukotrienes, inter alia leukotriene C4, are formed under the action of the enzyme 5-lipoxygenase (5-LO), and prostanoids are formed under the action of the enzyme cyclooxygenase (CO). In in vitro systems, the metabolites are secreted from the cell.
# To investigate the cyclooxygenase-inhibiting and the 5-lipoxygenase-inhibiting properties, the inhibitory effect of the test substances on the biosynthesis of the arachidonic acid derivatives leukotriene C4 (LTC4) and 6-ketoprostaglandin F1 α (6-keto-PGF1 α) is determined in vitro on mouse peritoneal macrophage cells. This was accomplished by determining the LTC4 and 6-keto-PGF1 α contents in a culture medium of mouse peritoneal macrophage cells by zymosan stimulation as described by Scott et al. (J. Exp. Med. 152 (1980), 324-335) and by Fradin et al. (Prostaglandins, 33 (1987), 579-589).
# A cell suspension containing peritoneal cells of male mice 8-10 weeks old was obtained in a known manner. A commercially available cell culture solution (RPMI 1640 from Messrs. Gibco) was used to which heparin (I0 international units/ml) and antibiotics were added according to the recipe of Bonney et al. (Biochem. J. 176 (1978) 422-433). The cell suspension was adjusted to a cell concentration of 10^6 cells per ml and distributed uniformly on titer plates containing […] (wells). These were kept for two hours in a humidified incubator filled with air enriched with 7% CO2. Cells not adhering to the titer cell walls were then removed by washing. The remaining macrophage cells adhering to the walls were incubated for about 12 hours in a suspension medium to which 0.1% bovine serum albumin (BSA) were added. The suspension medium was then replaced by a Hanks balanced salt solution (HBSS) containing 10 mM Hepes (hydroxyethyl-piperazinoethanesulfonic acid), to which a 0.1% strength solution of the test substances in aqueous, 1% strength dimethylformamide or only the solvent had been added. After 15 minutes the arachidonic acid metabolism was stimulated by adding 10 particles of zymosan (=glycoproteinmixture, isolated from cell walls of beer yeast, Saccharomyces cerevisiae, manufactured by Sigma Chemical Co., Munich) per titer cell. After 2 hours, samples of each of the supernatant liquids were investigated for their 6-keto-PGF1 α and LTC4 contents by means of an enzyme immunoassay (EIA) carried out by the method of Pradelles et al. (Analytical Chem. 57 (1985), 1170-1173). The determination of LTC4 and the determination of 6-keto-PGF1 α were each carried out in comparison with a comparative scale on suitable dilutions of the samples (1:50 to 1:250 for the LTC4 determination and 1:250 to 1:1250 for the 6-keto-PGF1 α determination). To determine the inhibitory effect of a 10^-5 molar concentration of the compounds, the amount of reference eicosanoids was determined and the inhibitory effect was calculated from this in % inhibition compared to the measurements of the zymosan controls.
row,SMILES,inhibition at 10 µM [%]
1,Cc1ccnc(N2CCN(CCc3c(C)n4c5c(ccc(C(=O)C(C)C)c35)SCC4)CC2)c1 [Example 91],81
2,Cc1ccnc(N2CCN(CCc3c(C)n4c5c(ccc(C(O)C(C)C)c35)SCC4)CC2)c1 (stereo not shown) [Example 90],66
3,CCCCC1CCc2cc(O)cc3c(CCN4CCN(c5cc(C)ccn5)CC4)c(C)n1c23 (stereo not shown) [Example 76],75
4,Cc1ccnc(N2CCN(CCc3c(C)n4c5c(cc(Cc6ccccc6)cc35)CCC4)CC2)c1 [Example 77],74
5,Cc1ccnc(N2CCN(CCc3c(C)n4c5c(cccc35)CCC4c3ccc(O)cc3)CC2)c1 (stereo not shown) [Example 61],98
6,Cc1ccnc(N2CCN(CCc3c(C)n4c5c(c(Cl)cc(Cl)c35)OCC4)CC2)c1 [Example 79],71
7,"Cc1ccnc(N2CCN(CCc3c(C)n4c5c(cccc35)CCC4c3ccccc3)CC2)c1 (stereo not shown) [Example 3, 5,6-dihydro-2-methyl-4-phenyl-1-{2-[4-(4-methylpyridine-2-yl)piperazin-1-yl]-ethyl}-4H-pyrrolo[3,2,1-ij]quinoline]",37
8,"CCCCCCCC1CCc2cccc3c(CCN4CCN(c5cc(C)ccn5)CC4)c(C)n1c23 (stereo not shown) [Example 4, 4-n-heptyl-5,6-dihydro-2-methyl-1-{2-[4-(4-methylpyridin-2-yl)piperazin-1-yl]ethyl}-4H-pyrrolo[3,2,1-ij]-quinoline]",44
9,"Cc1ccnc(N2CCN(CCc3c(-c4ccc(OCCCCO)cc4)n4c5c(cccc35)CCC4)CC2)c1 [Example 12, 2-[4-(4-Hydroxybutyloxy)-phenyl]-1-{2-[4-(4-methylpyridin-2-yl)piperazin-1-yl]ethyl}-5,6-dihydro-4H-pyrrolo[3,2,1-ij]quinoline]",97
10,Cc1ccc(N2CCN(CCc3c(C)n4c5c(cccc35)CCC4)CC2)nc1 [Example 42],15
11,Cc1c(CCN2CCN(c3ccccn3)CC2)c2cccc3c2n1CCC3 [Example 37],13
12,"Cc1ccnc(N2CCN(CCc3c(CO)n4c5c(cccc35)CCC4)CC2)c1 [Example 16, 5,6-dihydro-2-hydroxymethyl-1-{2-[4-(4-methylpyridin-2-yl)piperazin-1-yl]ethyl}-4H-pyrrolo[3,2,1-ij]quinoline]",17
13,COc1ccc(C2CCc3cc(OC)cc4c(CCN5CCN(c6cc(C)ccn6)CC5)c(C)n2c34)cc1 (stereo not shown) [Example 65],89
14,"CC(C)=Cc1cc2c3c(c1)c(CCN1CCN(c4cc(C)ccn4)CC1)c(C)n3CCC2 [Example 26, 5,6-Dihydro-2-methyl-8-(2-methylprop-1-enyl)-1-{2-[4-(4-methylpyridin-2-yl)piperazin-1-yl]ethyl}-4H-pyrrolo[3,2,1-ij]quinoline]",89
15,"Cc1ccnc(N2CCN(CCc3c(C)n4c5c(cc(Br)cc35)CCC4)CC2)c1 [Example 9, 8-Bromo-2-methyl-1-{2-[4-(4-methylpyridin-2-yl)piperazin-1-yl]ethyl}-5,6-dihydro-4H-pyrrolo[3,2,1-ij]quinoline]",62
16,"Cc1ccnc(N2CCN(CCc3c(C)n4c5c(cc(C(O)C(C)C)cc35)CCC4)CC2)c1 (stereo not shown) [Example 19, 5,6-Dihydro-8-(1-hydroxy-2-methylpropyl)-2-methyl-1-{2-[4-(4-methylpyridin-2-yl)piperazin-1-yl]ethyl}-4H-pyrrolo-[3,2,1-ij]quinoline]",55
17,"Cc1ccnc(N2CCN(CCc3c(C)n4c5c(cc(CC(C)C)cc35)CCC4)CC2)c1 [Example 21, 5,6-Dihydro-2-methyl-8-(2-methylpropyl)-1-{2-[4-(4-methylpyridin-2-yl)piperazin-1-yl]ethyl}-4H-pyrrolo[3,2,1-ij]quinoline]",95

row,SMILES,inhibition at 10 µM [%]
1,"Cc1ccnc(N2CCN(CCc3c(-c4ccc(O)cc4)n4c5c(cccc35)CCC4)CC2)c1 [Example 8, 2-(4-hydroxyphenyl)-1-{2-[4-(4-methylpyridin-2-yl)piperazin-1-yl]ethyl}-5,6-dihydro-4H-pyrrolo[3,2,1-ij]quinoline]",99
2,"CCCCC1CCc2cc(C(=O)C(C)C)cc3c(CCN4CCN(c5cc(C)ccn5)CC4)c(C)n1c23 (stereo not shown) [Example 23, 4-n-Butyl-5,6-dihydro-8-(2-methyl-1-oxopropyl)-2-methyl-1-{2-[4-(4-methylpyridin-2-yl)piperazin-1-yl]ethyl}-4H-pyrrolo[3,2,1-ij]quinoline]",94
3,"CCCCC1CCc2cccc3c(CCN4CCN(c5cc(C)ccn5)CC4)c(C)n1c23 (stereo not shown) [Example 73, 4-n-butyl-5,6-dihydro-2-methyl-1-{2-[4-(4-methylpyridin-2-yl)piperazin-1-yl]ethyl}-4H-pyrrolo[3,2,1-ij]quinoline]",90
4,"Cc1ccnc(N2CCN(CCc3c(C)n4c5c(cc(N)cc35)CCC4)CC2)c1 [Example 20, 8-Amino-5,6-dihydro-2-methyl-1-{2-[4-(4-methylpyridin-2-yl)piperazin-1-yl]ethyl}-4H-pyrrolo[3,2,1-ij]quinoline]",0
5,CCCCC1CCc2cc(OC)cc3c(CCN4CCN(c5cc(C)ccn5)CC4)c(C)n1c23 (stereo not shown) [Example 63],98
6,Cc1ccnc(N2CCN(CCc3c(C)n4c5c(cccc35)CC4C)CC2)c1 (stereo not shown) [Example 33],4
7,CNc1cc2c3c(c1)c(CCN1CCN(c4cc(C)ccn4)CC1)c(C)n3CCC2 [Example 80],39
8,Cc1c(CCN2CCN(c3ccc(Br)cn3)CC2)c2cccc3c2n1CCC3 [Example 43],24
9,CC(=O)c1cc2c3c(c1)c(CCN1CCN(c4cc(C)ccn4)CC1)c(C)n3CCC2 [Example 67],66
10,COc1ccc(C2CCc3cccc4c(CCN5CCN(c6cc(C)ccn6)CC5)c(C)n2c34)cc1 (stereo not shown) [Example 59],80
11,"Cc1ccnc(N2CCN(CCc3c(C)n4c5c(cccc35)CCC4)CC2)c1 [Example 1, 5,6-Dihydro-2-methyl-1-{2-[4-(4-methylpyridin-2-yl)piperazin-1-yl]ethyl}-4H-pyrrolo[3,2,1-ij]quinoline]",24
12,Cc1ccnc(N2CCN(CCc3c(C)n4c5c(ccc(Cl)c35)OCC4)CC2)c1 [Example 35],75
13,Cc1ccnc(N2CCN(CCc3c(C)n4c5c(cc(N(C)C)cc35)CCC4)CC2)c1 [Example 81],29
14,Cc1ccnc(N2CCN(CCc3c(C)n4c5c(cc(C(=O)C6CCCCC6)cc35)CCC4)CC2)c1 [Example 83],34
15,C=CCCC1CCc2cccc3c(CCN4CCN(c5cc(C)ccn5)CC4)c(C)n1c23 (stereo not shown) [Example 62],94
16,"Cc1ccnc(N2CCN(CCc3c(C)n4c5c(cc(NC(=O)c6ccccc6)cc35)CCC4)CC2)c1 [Example 25, 8-Benzoylamino-5,6-dihydro-2-methyl-1-{2-[4-(4-methylpyridin-2-yl)piperazin-1-yl]-ethyl}-4H-pyrrolo[3,2,1-ij]quinoline]",69
17,Cc1cc2c3c(c1)c(CCN1CCC(C(=O)c4ccc(F)cc4)CC1)c(C)n3CCC2 [Example 55],45
